From EPA's ToxValDB 9.5
Values joined by “and” are separate entries in the source; they are usually repeats but may differ in a detail not shown here. Identical values can stand only once.

Experiments:
Mus musculus = conditions: subchronic, duration: 90 days, inhalation, Crl:CD-1 (ICR) BR
Rattus norvegicus = conditions: inhalation; for NEL / LEL: Crl:CD(SD) BR
[1] = F, General Toxicity: Whole Body: Body Weight Change + General Toxicity: Whole Body: Clinical Observations + General Toxicity: Whole Body: …
[2] = F, Nervous: Brain: Brain Weight, Absolute + Nervous: Brain: Brain Weight, Relative
[3] = M, Blood: Triglycerides (TRIG), Blood + Whole Body: Mortality
[4] = M, General Toxicity: Whole Body: Body Weight Change + General Toxicity: Whole Body: Clinical Observations + General Toxicity: Whole Body: …
[5] = M, Nervous: Brain: Brain Weight, Absolute + Nervous: Brain: Brain Weight, Relative
[6] = chronic, duration: 2 years, F, Crl:CD BR, Developmental: Whole Body: Survival + General Toxicity: Whole Body: Body Weight Change + Hepatic: Liver: Liver Histopathology + Hepatic: …
[7] = chronic, duration: 2 years, F, Blood: Eosinophils + Blood: Monocytes
[8] = chronic, duration: 2 years, F, Blood: Sorbitol Dehydrogenase (SDH), Blood
[9] = chronic, duration: 2 years, F, Liver: Liver Weight, Absolute
[10] = chronic, duration: 2 years, F, Mammary Gland: Mammary Gland Fibroadenoma
[11] = chronic, duration: 2 years, M, Crl:CD BR, Developmental: Whole Body: Survival + General Toxicity: Whole Body: Body Weight Change + Hepatic: Liver: Focal Liver Necrosis + Hepatic: …
[12] = chronic, duration: 2 years, M, Blood: Monocytes + Liver: Aspartate Aminotransferase (AST), Blood
[13] = chronic, duration: 2 years, M, Heart: Heart Weight, Absolute + Liver: Focal Liver Necrosis + Lung: Cholesterol Cleft/Granuloma in Lung
[14] = chronic, duration: 2 years, M, Kidney: Renal Tubular Pigment + Whole Body: Body Weight Change + Whole Body: Terminal Body Weight, Absolute
[15] = chronic, duration: 2 years, M, Kidney: Urobilinogen, Urine
[16] = reproduction developmental, duration: 9 days, F, Crl: CD BR, generation: P0, P0: General Toxicity: Whole Body: Maternal Body Weight Change + P0: General Toxicity: Whole Body: Mortality + P0: Nervous: Whole Body: …
[17] = reproduction developmental, duration: 9 days, F, Crl:CD BR, generation: P0, P0: Developmental: Uterus: Implantation + P0: Developmental: Uterus: Post-Implantation Loss + P0: Developmental: Uterus: Pre-Implantation …
[18] = reproduction developmental, duration: 9 days, F, Crl:CD BR, generation: P0, P0: Developmental: Uterus: Post-Implantation Loss + P0: Developmental: Uterus: Resorptions, Mean/Litter + P0: General Toxicity: Whole Body: …
[19] = reproduction developmental, duration: 9 days, F, generation: P0, P0: Ovary: Corpora Lutea
[20] = reproduction developmental, duration: 9 days, F, generation: P0, P0: Whole Body: Clinical Observations + P0: Whole Body: Maternal Body Weight Change
[21] = reproduction developmental, duration: 9 days, F, generation: P0, P0: Whole Body: Lethargic
[22] = subchronic, duration: 90 days, F, Crl:CD BR, General Toxicity: Whole Body: Body Weight Change + General Toxicity: Whole Body: Clinical Observations + Hepatic: Liver: Alkaline …
[23] = subchronic, duration: 90 days, F, Crl:CD BR, Nervous: Brain: Brain Weight, Absolute + Nervous: Brain: Brain Weight, Relative + Whole Body: Whole Body: Functional Observation Battery (…
[24] = subchronic, duration: 90 days, F, Liver: Alkaline Phosphatase (ALP), Blood
[25] = subchronic, duration: 90 days, M, Crl:CD BR, General Toxicity: Whole Body: Body Weight Change + General Toxicity: Whole Body: Clinical Observations + Hepatic: Liver: Liver Weight, …
[26] = subchronic, duration: 90 days, M, Crl:CD BR, Nervous: Brain: Brain Weight, Absolute + Nervous: Brain: Brain Weight, Relative + Whole Body: Whole Body: Functional Observation Battery (…
[27] = subchronic, duration: 90 days, M, Blood: Triglycerides (TRIG), Blood + Whole Body: Function Observation Battery (FOB)

FC(Cl)C(F)(F)F (stereo not drawn) [2-Chloro-1,1,1,2-tetrafluoroethane]
NEL (Mus musculus; F, Adrenal: Adrenal Gland Weight, Absolute + Adrenal: Adrenal Gland Weight, Relative + Blood: Hematology, Unspecified + Brain: Brain Weight, …): 279000 mg/m3
LOAEL (Mus musculus; F, Cardiovascular: Heart: Heart Weight, Absolute + Cardiovascular: Heart: Heart Weight, Relative + Endocrine: Adrenal: Adrenal Gland Weight, …): 83700 mg/m3
LOAEL (Mus musculus; [1]): 279000 mg/m3
NOAEL (Mus musculus; [1]): 83700 mg/m3
LOAEL (Mus musculus; [2]): 83700 mg/m3
NOAEL (Mus musculus; [2]): 27900 mg/m3
LEL (Mus musculus; F, Whole Body: Mortality): 27900 mg/m3
NEL (Mus musculus; M, Adrenal: Adrenal Gland Weight, Absolute + Adrenal: Adrenal Gland Weight, Relative + Blood: Hematology, Unspecified + Brain: Brain Weight, …): 279000 mg/m3
LEL (Mus musculus; [3]): 83700 mg/m3
NEL (Mus musculus; [3]): 27900 mg/m3
LOAEL (Mus musculus; M, Cardiovascular: Heart: Heart Weight, Absolute + Cardiovascular: Heart: Heart Weight, Relative + Endocrine: Adrenal: Adrenal Gland Weight, …): 83700 mg/m3
LOAEL (Mus musculus; [4]): 279000 mg/m3
NOAEL (Mus musculus; [4]): 83700 mg/m3
LEL (Mus musculus; M, Heart: Heart Weight, Relative + Whole Body: Body Weight Change): 27900 mg/m3
LOAEL (Mus musculus; [5]): 83700 mg/m3
NOAEL (Mus musculus; [5]): 27900 mg/m3
LOAEL (Rattus norvegicus; chronic, duration: 2 years, F, Crl:CD BR, Cardiovascular: Aorta: Aorta Histopathology + Cardiovascular: Heart: Heart Histopathology + Cardiovascular: Heart: Heart Weight, Absolute + …): 279000 mg/m3
LOAEL (Rattus norvegicus; [6]): 279000 mg/m3
NOAEL (Rattus norvegicus; [6]): 55800 mg/m3
LOAEL (Rattus norvegicus; chronic, duration: 2 years, F, Crl:CD BR, Hepatic: Blood: Globulin (G) + Hepatic: Liver: Alanine Aminotransferase (ALT) + Hepatic: Liver: Albumin (A) + Hepatic: Liver: Alkaline …): 11200 mg/m3
NEL (Rattus norvegicus; chronic, duration: 2 years, F, Adrenal: Adrenal Gland Histopathology + Adrenal: Adrenal Gland Weight, Absolute + Aorta: Aorta Histopathology + Brain: Brain Histopathology…): 279000 mg/m3
NEL (Rattus norvegicus; chronic, duration: 2 years, F, Blood: Abnormal Lymphocytes + Blood: Bands + Blood: Basophils + Blood: Calcium (CA), Blood + Blood: Globulin (G), Blood + Blood: Glucose (…): 279000 mg/m3
LEL (Rattus norvegicus; chronic, duration: 2 years, F, Blood: Chloride (CL), Blood + Kidney: Creatine Kinase (CK), Blood + Kidney: Creatinine (CREAT), Blood): 11200 mg/m3
LEL (Rattus norvegicus; [7]): 55800 mg/m3
NEL (Rattus norvegicus; [7]): 11200 mg/m3
LEL (Rattus norvegicus; [8]): 279000 mg/m3
NEL (Rattus norvegicus; [8]): 55800 mg/m3
LEL (Rattus norvegicus; [9]): 55800 mg/m3
NEL (Rattus norvegicus; [9]): 11200 mg/m3
LEL (Rattus norvegicus; [10]): 279000 mg/m3
NEL (Rattus norvegicus; [10]): 55800 mg/m3
LEL (Rattus norvegicus; chronic, duration: 2 years, F, Whole Body: Body Weight Change + Whole Body: Terminal Body Weight, Absolute): 11200 mg/m3
LOAEL (Rattus norvegicus; chronic, duration: 2 years, M, Crl:CD BR, Cardiovascular: Aorta: Aorta Histopathology + Cardiovascular: Heart: Heart Histopathology + Cardiovascular: Heart: Heart Weight, Absolute + …): 279000 mg/m3
LOAEL (Rattus norvegicus; [11]): 279000 mg/m3
NOAEL (Rattus norvegicus; [11]): 55800 mg/m3
LOAEL (Rattus norvegicus; chronic, duration: 2 years, M, Crl:CD BR, Hepatic: Blood: Globulin (G) + Hepatic: Liver: Alanine Aminotransferase (ALT) + Hepatic: Liver: Albumin (A) + Hepatic: Liver: Alkaline …): 11200 mg/m3
NEL (Rattus norvegicus; chronic, duration: 2 years, M, Adrenal: Adrenal Gland Histopathology + Adrenal: Adrenal Gland Weight, Absolute + Aorta: Aorta Histopathology + Brain: Brain Histopathology…): 279000 mg/m3
NEL (Rattus norvegicus; chronic, duration: 2 years, M, Blood: Abnormal Lymphocytes + Blood: Bands + Blood: Basophils + Blood: Calcium (CA), Blood + Blood: Eosinophils + Blood: Globulin (G), Blood…): 279000 mg/m3
LEL (Rattus norvegicus; chronic, duration: 2 years, M, Blood: Chloride (CL), Blood + Liver: Alanine Aminotransferase (ALT), Blood): 11200 mg/m3
LEL (Rattus norvegicus; [12]): 55800 mg/m3
NEL (Rattus norvegicus; [12]): 11200 mg/m3
LEL (Rattus norvegicus; [13]): 279000 mg/m3
NEL (Rattus norvegicus; [13]): 55800 mg/m3
LEL (Rattus norvegicus; [14]): 55800 mg/m3
NEL (Rattus norvegicus; [14]): 11200 mg/m3
LEL (Rattus norvegicus; [15]): 279000 mg/m3
NEL (Rattus norvegicus; [15]): 55800 mg/m3
LEL (Rattus norvegicus; chronic, duration: 2 years, M, Liver: Liver Weight, Absolute + Spleen: Spleen Weight, Absolute): 11200 mg/m3
LOAEL (Rattus norvegicus; developmental, duration: 9 days, M/F, Crl: CD BR, generation: F1, F1: Developmental: Uterus: Dead Fetuses + F1: Developmental: Uterus: Fetuses, Live + F1: General Toxicity: Whole Body: Body Weight, Fetal): 279000 mg/m3
NOAEL (Rattus norvegicus; developmental, duration: 9 days, M/F, Crl:CD BR, generation: F1, F1: Developmental: Head: Head Abnormalities + F1: Developmental: Whole Body: External Abnormalities + F1: Developmental: Whole Body: Live …): 27900 mg/m3 and 83700 mg/m3
NEL (Rattus norvegicus; developmental, duration: 9 days, M/F, generation: F1, F1: Head: Head Abnormalities + F1: Whole Body: External Abnormalities + F1: Whole Body: Live Pups Born + F1: Whole Body: Skeletal …): 279000 mg/m3
LEL (Rattus norvegicus; developmental, duration: 9 days, M/F, generation: F1, F1: Whole Body: Pup Weight Relative to Litter): 27900 mg/m3
LOAEL (Rattus norvegicus; reproduction developmental, duration: 9 days, F, Crl: CD BR, generation: P0, P0: Developmental: Uterus: Implantation + P0: Developmental: Uterus: Resorptions, Early + P0: Developmental: Uterus: Resorptions, Total + P0…): 279000 mg/m3
LOAEL (Rattus norvegicus; [16]): 279000 mg/m3
NOAEL (Rattus norvegicus; [16]): 55800 mg/m3
LOAEL (Rattus norvegicus; [17]): 83700 mg/m3
NOAEL (Rattus norvegicus; [17]): 27900 mg/m3
NOAEL (Rattus norvegicus; reproduction developmental, duration: 9 days, F, Crl:CD BR, generation: P0, P0: Developmental: Uterus: Implantation + P0: Developmental: Uterus: Pre-Implantation Loss + P0: Reproductive: Ovary: Corpora Lutea): 279000 mg/m3
LOAEL (Rattus norvegicus; [18]): 279000 mg/m3
NOAEL (Rattus norvegicus; [18]): 83700 mg/m3
LEL (Rattus norvegicus; [19]): 83700 mg/m3
NEL (Rattus norvegicus; [19]): 27900 mg/m3
LEL (Rattus norvegicus; reproduction developmental, duration: 9 days, F, generation: P0, P0: Uterus: Implantation): 27900 mg/m3
NEL (Rattus norvegicus; reproduction developmental, duration: 9 days, F, generation: P0, P0: Uterus: Implantation + P0: Uterus: Resorptions, Early + P0: Uterus: Resorptions, Total + P0: Whole Body: Maternal Body Weight Change + …): 279000 mg/m3
NEL (Rattus norvegicus; reproduction developmental, duration: 9 days, F, generation: P0, P0: Uterus: Post-Implantation Loss + P0: Uterus: Pre-Implantation Loss + P0: Uterus: Resorptions, Mean/Litter + P0: Whole Body: Delivered …): 279000 mg/m3
LEL (Rattus norvegicus; [20]): 279000 mg/m3
NEL (Rattus norvegicus; [20]): 83700 mg/m3
LEL (Rattus norvegicus; [21]): 279000 mg/m3
NEL (Rattus norvegicus; [21]): 55800 mg/m3
NEL (Rattus norvegicus; reproduction developmental, duration: 9 days, M/F, generation: P0, P0: Uterus: Fetuses, Dead + P0: Uterus: Fetuses, Live + P0: Whole Body: Body Weight, Fetal): 279000 mg/m3
NEL (Rattus norvegicus; short-term, duration: 4 weeks, F, Adrenal: Adrenal Gland Weight, Absolute + Adrenal: Adrenal Gland Weight, Relative + Bladder: Urinary Bladder Calculus + Bladder: Urinary …): 279000 mg/m3
NEL (Rattus norvegicus; short-term, duration: 4 weeks, M, Adrenal: Adrenal Gland Weight, Absolute + Adrenal: Adrenal Gland Weight, Relative + Blood: Abnormal Lymphocytes + Blood: Band Neutrophils + …): 279000 mg/m3
LOAEL (Rattus norvegicus; subchronic, duration: 90 days, F, Crl:CD BR, Cardiovascular: Heart: Heart Weight, Absolute + Cardiovascular: Heart: Heart Weight, Relative + Endocrine: Adrenal: Adrenal Gland Weight, …): 83700 mg/m3
LOAEL (Rattus norvegicus; [22]): 279000 mg/m3
NOAEL (Rattus norvegicus; [22]): 83700 mg/m3
LOAEL (Rattus norvegicus; [23]): 83700 mg/m3
NOAEL (Rattus norvegicus; [23]): 27900 mg/m3
NEL (Rattus norvegicus; subchronic, duration: 90 days, F, Adrenal: Adrenal Gland Weight, Absolute + Adrenal: Adrenal Gland Weight, Relative + Blood: Hematology, Unspecified + Brain: Brain Weight, …): 279000 mg/m3
LEL (Rattus norvegicus; [24]): 279000 mg/m3
NEL (Rattus norvegicus; [24]): 83700 mg/m3
LOAEL (Rattus norvegicus; subchronic, duration: 90 days, M, Crl:CD BR, Cardiovascular: Heart: Heart Weight, Absolute + Cardiovascular: Heart: Heart Weight, Relative + Endocrine: Adrenal: Adrenal Gland Weight, …): 83700 mg/m3
LOAEL (Rattus norvegicus; [25]): 279000 mg/m3
NOAEL (Rattus norvegicus; [25]): 83700 mg/m3
LOAEL (Rattus norvegicus; [26]): 83700 mg/m3
NOAEL (Rattus norvegicus; [26]): 27900 mg/m3
NEL (Rattus norvegicus; subchronic, duration: 90 days, M, Adrenal: Adrenal Gland Weight, Absolute + Adrenal: Adrenal Gland Weight, Relative + Blood: Hematology, Unspecified + Brain: Brain Weight, …): 279000 mg/m3
LEL (Rattus norvegicus; [27]): 83700 mg/m3
NEL (Rattus norvegicus; [27]): 27900 mg/m3
